# Measurements from ChEMBL document CHEMBL1201862, “PubChem BioAssay data set” (2004).
#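 Cultured in 96-well plates, cells were exposed to test compound for 48 hours across five concentrations. GI50: concentration for 50% inhibition of growth.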 Active and inactive are the calls of the source. Cut-off read from the data, not from the text of the source: active = GI50 up to about 1.1 µM and inactive = higher.
# Key:
# Assay in all cases: DTP human tumour cell line panel, 48 h
# SF-295 = system: SF-295
# UACC-257 = system: UACC-257
# RPMI-8226 = system: RPMI-8226
# SF-539 = system: SF-539
# SW-620 = system: SW-620
# DMS-273 = system: DMS-273
# HL-60 = system: HL-60
# TK-10 = system: TK-10
# 786-0 = system: 786-0
# OVCAR-4 = system: OVCAR-4
# ACHN = system: ACHN
# KM-20L2 = system: KM-20L2
# OVCAR-8 = system: OVCAR-8
# A549 = system: A549
# UACC-62 = system: UACC-62
# LXFL 529 = system: LXFL 529
# RXF 393 = system: RXF 393
# HOP-62 = system: HOP-62
# XF498 = system: XF498
# SK-MEL-2 = system: SK-MEL-2
# HT-29 = system: HT-29
# SK-OV-3 = system: SK-OV-3
# UO-31 = system: UO-31
# SK-MEL-5 = system: SK-MEL-5
# OVCAR-5 = system: OVCAR-5
# NCI-H460 = system: NCI-H460
# HCT-15 = system: HCT-15
# K562 = system: K562
# DLD-1 = system: DLD-1
# SK-MEL-28 = system: SK-MEL-28
# CCRF-CEM = system: CCRF-CEM
# M19-MEL = system: M19-MEL
# SNB-75 = system: SNB-75
# CAKI-1 = system: CAKI-1
# NCI-H226 = system: NCI-H226
# Malme-3M = system: Malme-3M
# EKVX = system: EKVX
# SNB-78 = system: SNB-78
# RXF 631 = system: RXF 631
# M14 = system: M14
# OVCAR-3 = system: OVCAR-3
# A498 = system: A498
# HCC 2998 = system: HCC 2998
# MOLT-4 = system: MOLT-4
# NCI-H23 = system: NCI-H23
# HCT-116 = system: HCT-116
# KM12 = system: KM12
# DMS-114 = system: DMS-114
# IGROV-1 = system: IGROV-1
# U-251 = system: U-251
# SN12C = system: SN12C
# COLO 205 = system: COLO 205
# LOX IMVI = system: LOX IMVI
# SR = system: SR
# NCI-H522 = system: NCI-H522
# SNB-19 = system: SNB-19
# HOP-92 = system: HOP-92
# SF-268 = system: SF-268
smiles,measurement,setting,value
CCc1cccc(C)c1NS(=O)(=O)c1ccccc1,GI50,SF-295,> 100 µM (inactive)
same,GI50,UACC-257,> 100 µM (inactive)
same,GI50,RPMI-8226,> 100 µM (inactive)
same,GI50,SF-539,> 100 µM (inactive)
same,GI50,SW-620,> 100 µM (inactive)
same,GI50,DMS-273,> 100 µM (inactive)
same,GI50,HL-60,> 100 µM (inactive)
same,GI50,TK-10,> 100 µM (inactive)
same,GI50,786-0,> 100 µM (inactive)
same,GI50,OVCAR-4,> 100 µM (inactive)
same,GI50,ACHN,> 100 µM (inactive)
same,GI50,KM-20L2,> 100 µM (inactive)
same,GI50,OVCAR-8,> 100 µM (inactive)
same,GI50,A549,> 100 µM (inactive)
same,GI50,UACC-62,> 100 µM (inactive)
same,GI50,LXFL 529,> 100 µM (inactive)
same,GI50,RXF 393,> 100 µM (inactive)
same,GI50,HOP-62,> 100 µM (inactive)
same,GI50,XF498,> 100 µM (inactive)
same,GI50,SK-MEL-2,> 100 µM (inactive)
same,GI50,HT-29,> 100 µM (inactive)
same,GI50,SK-OV-3,> 100 µM (inactive)
same,GI50,UO-31,> 100 µM (inactive)
same,GI50,SK-MEL-5,> 100 µM (inactive)
same,GI50,OVCAR-5,> 100 µM (inactive)
same,GI50,NCI-H460,> 100 µM (inactive)
same,GI50,HCT-15,> 100 µM
same,GI50,K562,> 100 µM (inactive)
same,GI50,DLD-1,> 100 µM (inactive)
same,GI50,SK-MEL-28,> 100 µM (inactive)
same,GI50,CCRF-CEM,> 100 µM (inactive)
same,GI50,M19-MEL,> 100 µM (inactive)
same,GI50,SNB-75,> 100 µM (inactive)
same,GI50,CAKI-1,> 100 µM (inactive)
same,GI50,NCI-H226,24.3 µM (inactive)
same,GI50,Malme-3M,> 100 µM (inactive)
same,GI50,EKVX,> 100 µM (inactive)
same,GI50,SNB-78,> 100 µM (inactive)
same,GI50,RXF 631,> 100 µM (inactive)
same,GI50,M14,> 100 µM (inactive)
same,GI50,OVCAR-3,> 100 µM (inactive)
same,GI50,A498,> 100 µM (inactive)
same,GI50,HCC 2998,> 100 µM (inactive)
same,GI50,MOLT-4,> 100 µM (inactive)
same,GI50,NCI-H23,> 100 µM (inactive)
same,GI50,HCT-116,> 100 µM (inactive)
same,GI50,KM12,> 100 µM (inactive)
same,GI50,DMS-114,> 100 µM (inactive)
same,GI50,IGROV-1,> 100 µM (inactive)
same,GI50,U-251,> 100 µM (inactive)
O=Cc1cc2sc(C=O)cc2s1,GI50,SN12C,> 100 µM (inactive)
same,GI50,SF-295,> 100 µM (inactive)
same,GI50,UACC-257,> 100 µM (inactive)
same,GI50,RPMI-8226,> 100 µM (inactive)
same,GI50,SF-539,> 100 µM (inactive)
same,GI50,SW-620,> 100 µM (inactive)
same,GI50,DMS-273,> 100 µM (inactive)
same,GI50,HL-60,> 100 µM (inactive)
same,GI50,TK-10,> 100 µM (inactive)
same,GI50,786-0,> 100 µM (inactive)
same,GI50,OVCAR-4,> 100 µM (inactive)
same,GI50,COLO 205,> 100 µM (inactive)
same,GI50,KM-20L2,> 100 µM (inactive)
same,GI50,OVCAR-8,> 100 µM (inactive)
same,GI50,A549,> 100 µM (inactive)
same,GI50,UACC-62,40.6 µM (inactive)
same,GI50,LXFL 529,> 100 µM (inactive)
same,GI50,LOX IMVI,> 100 µM (inactive)
same,GI50,RXF 393,> 100 µM (inactive)
same,GI50,HOP-62,> 100 µM (inactive)
same,GI50,XF498,> 100 µM (inactive)
same,GI50,HT-29,> 100 µM (inactive)
same,GI50,SR,> 100 µM (inactive)
same,GI50,SK-OV-3,> 100 µM (inactive)
same,GI50,NCI-H522,93.3 µM (inactive)
same,GI50,UO-31,> 100 µM (inactive)
same,GI50,SK-MEL-5,> 100 µM (inactive)
same,GI50,OVCAR-5,> 100 µM (inactive)
same,GI50,NCI-H460,> 100 µM (inactive)
same,GI50,HCT-15,> 100 µM
same,GI50,K562,> 100 µM (inactive)
same,GI50,DLD-1,> 100 µM (inactive)
same,GI50,SNB-19,> 100 µM (inactive)
same,GI50,CCRF-CEM,> 100 µM (inactive)
same,GI50,M19-MEL,> 100 µM (inactive)
same,GI50,SNB-75,> 100 µM (inactive)
same,GI50,CAKI-1,45.3 µM (inactive)
same,GI50,NCI-H226,26.1 µM (inactive)
same,GI50,Malme-3M,> 100 µM (inactive)
same,GI50,EKVX,> 100 µM (inactive)
same,GI50,SNB-78,> 100 µM (inactive)
same,GI50,RXF 631,> 100 µM (inactive)
same,GI50,M14,> 100 µM (inactive)
same,GI50,HOP-92,> 100 µM (inactive)
same,GI50,OVCAR-3,> 100 µM (inactive)
same,GI50,A498,17.7 µM (inactive)
same,GI50,SF-268,> 100 µM (inactive)
same,GI50,HCC 2998,> 100 µM (inactive)
same,GI50,MOLT-4,> 100 µM (inactive)
same,GI50,NCI-H23,> 100 µM (inactive)
same,GI50,HCT-116,> 100 µM (inactive)
same,GI50,KM12,> 100 µM (inactive)
same,GI50,DMS-114,> 100 µM (inactive)
same,GI50,IGROV-1,> 100 µM (inactive)
same,GI50,U-251,> 100 µM (inactive)
